# Columns and labels:
# D. citri [1] = assay: Liquid ACP diet sandwich feeding assay (MFC): inhibition of de novo stylet sheath formation; assay type: in vivo, Diaphorina citri; design: key: −: No effect apparent inhibition of stylet sheath; +/−: inconclusive inhibition; +: apparent slight inhibition effect; ++: increased apparent inhibition effect; +++: high inhibition effect; ++++: very high inhibition effect; +++++: complete inhibition of sheath synthesis; conditions: small molecule in liquid ACP diet, about 24 h, concentration, pH, 25° C. per Table 3
# Protocol: (§1) The next step was to determine if addition of cellulase to the diet of D. citri would interfere with stylet sheath formation. A D. citri diet is prepared as described by Hall, David et al., “Research toward an artificial diet for adult Asian citrus psyllid,” Annals of the Entomological Society of America 103.4:611-617 (2010). Approximately 25 D. citri were collected into polystyrene Cellstar 35 mm×10 mm dishes (Griener Bio-One, Monroe, N.C.) that were then sealed using a single layer of Parafilm® M (Pechiney Plastic Packaging Company, Chicago, Ill.). Approximately 99 μl of liquid ACP diet (e.g., diet lacking the solidifying agar component, see Hall, et. al., 2010, supra) was mixed with approximately 1 μl of cellulase (Sigma Aldrich, St. Louis, Mo.) and mixed. […] layer Parafilm® M surface, which was then covered with another layer of Parafilm® M to form a sandwich (e.g., Parafilm® M—liquid ACP diet with cellulase—Parafilm® M) to allow ACP to feed into the liquid ACP diet containing cellulase. This MFC was then incubated at about 25° C., at about 75% relative humidity, with a light:dark cycle of approximately 14:10 hours for a period of about 24 hours. After about 24 hours, the stylet sheaths were observed using an inverted microscope. FIGS. 3G through 3I are images of three separate locations where D. citri made attempts to feed into the liquid ACP diet containing approximately 1 unit/μl cellulase.
# (§2) Because many biomolecule polymerizing enzymes require divalent cations as cofactors, the effect of ethylenediaminetetraacetic acid (EDTA), a chelator of divalent cations, on ACP SS formation was tested by adding EDTA to the previously described liquid ACP diet (see Hall et al., 2010, supra). The EDTA was added to the liquid ACP diet at a concentration of approximately 2 mM EDTA in diH2O. Approximately 200 D. citri were placed in plastic Petri dishes. The dishes were covered with a single layer of Parafilm® M to form MFC. […] The MFC plates were incubated at a temperature of about 25° C., a relative humidity of about 75%, and a light/dark cycle of about 14:10 hours duration. Following the 24-hour incubation, the fluid (either liquid ACP diet containing EDTA or just the liquid ACP diet) between the two sheets of plastic was harvested by using a sterile 5 ml syringe and 20-gauge needle which was pushed into the center of the Parafilm® M-fluid-Parafilm® M sandwich, and the fluid was then removed by syringe plunger suction. The harvested fluids were put into sterile 50 ml conical vials, placed at about −80° C. until frozen. Each vial of harvested fluid was then lypholyzed overnight. The lyophilized product was then solubilized in […], placed at about −80° C. until frozen, then each new vial was lyopholyzed overnight. The lyophilized product was then solubilized in approximately 15 μL of approximately 1× Laemmili buffer (Bio-Rad, Hercules, Calif.) containing approximately 5% 2-mercaptoethanol. The sample was loaded onto a sodium dodecyl sulfate polyacrylamide gel (SDS-PAGE) and underwent electrophoresis. The SDS PAGE gel was then stained with coomassie. Uncommon bands between the liquid ACP diet containing EDTA and liquid ACP diet without EDTA (negative control) lanes were cut out and analyzed by Orbitrap (Thermo Scientific, Waltham, Mass.) protein analysis, according to manufacturer's protocol.
# (§3) After about 24-hour incubation, D. citri feeding sites were observed. […] See also Table 2 and Table 3, infra.
# [2] = tested on: Bemisia tabaci biotype B whitefly; assay: Liquid ACP diet sandwich feeding assay: stylet sheath formation by whitefly; assay type: in vivo; design: key to Inhibition of Sheath Formation: −: No effect apparent inhibition of stylet sheath; +/−: inconclusive inhibition; +: apparent slight inhibition effect; ++: increased apparent inhibition effect; +++: high inhibition effect; ++++: very high inhibition effect; +++++: complete inhibition of sheath synthesis
# Protocol: The effects of a protease (bromelain and ficin) contained within the previously described artificial diet (liquid ACP diet) were tested on the Bemisia tabaci biotype B whitefly (a Aleyrodidae, an SSFHI) using approximately 100 live B. tabaci. Approximately 100 live B. tabaci were placed into polystyrene Cellstar 35 mm×10 mm dishes (Griener Bio-One, Monroe, N.C.) using the liquid ACP diet “sandwich” described in Example 2, using approximately 200 μL liquid ACP diet with or without a protease using the conditions described in Table 6 below. The MFCs were incubated at a temperature of about 25° C., a relative humidity of about 75%, and a light:dark cycle of approximately 14:10 hours. MFCs were maintained within clear Pyrex® baking dishes with the membrane (liquid ACP diet “sandwich”) side up, and the baking dish covered in a single layer of clear plastic wrap to prevent external contaminant interactions with the membrane surface during incubation. After about 24 hours incubation, the B. tabaci feeding sites were observed using an inverted microscope to see the effects of proteases in diet on the stylet sheaths for B. tabaci.
# After performing the experiments using liquid ACP diet containing either bromelain or ficin experiment on B. tabaci, a similar experiment is performed substituting BAPN for the enzyme. […]
# D. citri [3] = assay: Liquid ACP diet sandwich feeding assay (MFC): inhibition of de novo stylet sheath formation; assay type: in vivo, Diaphorina citri; conditions: for Effect on D. citri stylet sheath formation in liquid ACP diet: about 24 h, cellulase approx 1 unit/μl, BAPN 100 mM, EDTA approx 2 mM, proteases per Table 5; for Effect (on ACP stylet sheath formation): D. citri, GRAS small molecule in 175 μL liquid ACP diet at the mM concentration of Table 8, about 24 h
# Protocol: as §1, §2, §3
smiles,measurement,setting,value
"O[C@H](CS)[C@H](O)CS (racemic) [Dithiothreitol Solution (DTT), Dithiothreitol]",Inhibition of Sheath Formation,D. citri [1],‘+++++’ (D. citri)
N#CCCN.O=C(O)/C=C/C(=O)O [3-aminopropionitrile fumarate salt],Inhibition of Sheath Formation,"[2]; WF (Bemisia tabaci, B biotype), BAPN 50 mM in diet",‘+++++’ (WF)
same,Effect on B. tabaci stylet sheath formation in liquid ACP diet,"[2]; about 24 hours, bromelain or ficin 10 units in 250 μl of diet, BAPN 50 mM",prevents stylet sheath formation
same,Effect on D. citri stylet sheath formation in liquid ACP diet,D. citri [3],prohibited the solidification of the ACP SS
same,Inhibition of Sheath Formation,D. citri [1],‘+++++’ (D. citri)
OCc1ccc(O)cc1 [4-hydroxybenzyl alcohol],Inhibition of Sheath Formation,D. citri [1],‘−’ (D. citri)
"O=c1ccc2ccc(O)cc2o1 [7-HO-Coumarin, 7-hydroxy-coumarin]",Effect (on ACP stylet sheath formation),D. citri [3],Malformed sheaths
[NH4+].[NH4+].[SH-].[SH-].[S]=[Mo]=[S] [Ammonium Tetrathiomolybdate],Effect on D. citri stylet sheath formation in liquid ACP diet,D. citri [3],potent inhibitor of D. citri sheath formation
same,Inhibition of Sheath Formation,D. citri [1],‘+++++’ (D. citri)
COc1ccc([C@@H]2CC(=O)c3c(O)cc(O[C@@H]4O[C@H](CO[C@@H]5O[C@@H](C)[C@H](O)[C@@H](O)[C@H]5O)[C@@H](O)[C@H](O)[C@H]4O)cc3O2)cc1 [Didymin],Effect (on ACP stylet sheath formation),D. citri [3],Malformed sheaths
C[C@@H]1O[C@@H](OC[C@H]2O[C@@H](Oc3cc(O)c4c(c3)O[C@H](c3ccc(O)c(O)c3)CC4=O)[C@H](O)[C@@H](O)[C@@H]2O)[C@H](O)[C@H](O)[C@H]1O [Eriocitrin],Effect (on ACP stylet sheath formation),D. citri [3],Malformed sheaths
same,Effect (on ACP stylet sheath formation),D. citri [3]; listed as eriocitrin,malformation of sheaths
O=C1C[C@@H](c2ccc(O)c(O)c2)Oc2cc(O)cc(O)c21 [Eriodictyol],Effect (on ACP stylet sheath formation),D. citri [3],Malformed sheaths
"O=C(O)CN(CCN(CC(=O)O)CC(=O)O)CC(=O)O [Ethylenediaminetetraacetic acid (EDTA), Ethylenediaminetetraacetic acid]",Effect on D. citri stylet sheath formation in liquid ACP diet,D. citri [3],can inhibit sheath formation
same,Inhibition of Sheath Formation,D. citri [1],‘+++++’ (D. citri)
COc1ccc([C@@H]2CC(=O)c3c(O)cc(O)cc3O2)cc1O [Hesperetin],Effect (on ACP stylet sheath formation),D. citri [3],Malformed sheaths
COc1ccc([C@@H]2CC(=O)c3c(O)cc(O[C@@H]4O[C@H](CO[C@@H]5O[C@@H](C)[C@H](O)[C@@H](O)[C@H]5O)[C@@H](O)[C@H](O)[C@H]4O)cc3O2)cc1O [Hesperidin],Effect (on ACP stylet sheath formation),D. citri [3],No Effect
O=c1cc(CO)occ1O [Kojic Acid],Inhibition of Sheath Formation,D. citri [1],‘++’ (D. citri)
CC1(C)O[C@H]2CC(=O)OC[C@]23[C@H]2CC[C@@](C)([C@@H](O[C@@H]4O[C@H](CO)[C@@H](O)[C@H](O)[C@H]4O)c4ccoc4)[C@@]4(O[C@@H]4C(=O)O)[C@]2(C)C(=O)C[C@@H]13 [Limonin glucoside],Effect (on ACP stylet sheath formation),D. citri [3],Malformed sheaths
CC1(C)O[C@H]2CC(=O)OC[C@]23[C@H]2CC[C@@]4(C)[C@H](c5ccoc5)OC(=O)[C@H]5O[C@]54[C@]2(C)C(=O)C[C@@H]13 [Limonin],Effect (on ACP stylet sheath formation),D. citri [3],Malformed sheaths
O=C1C[C@@H](c2ccc(O)cc2)Oc2cc(O)cc(O)c21 [Naringenin],Effect (on ACP stylet sheath formation),D. citri [3],Malformed sheaths
C[C@@H]1O[C@@H](O[C@H]2[C@H](Oc3cc(O)c4c(c3)O[C@H](c3ccc(O)cc3)CC4=O)O[C@H](CO)[C@@H](O)[C@@H]2O)[C@H](O)[C@H](O)[C@H]1O [Naringin],Effect (on ACP stylet sheath formation),D. citri [3],Malformed sheaths
O=C([O-])CN(CC(=O)[O-])CC(=O)[O-].[Na+].[Na+].[Na+] [Nitrilotriacetic acid trisodium salt],Inhibition of Sheath Formation,D. citri [1],‘+++++’ (D. citri)
CC(=O)O[C@H]1CC(=O)OC(C)(C)[C@@H]2CC(=O)[C@]3(C)[C@H](CC[C@@]4(C)[C@H](c5ccoc5)OC(=O)[C@H]5O[C@]543)[C@@]12C [Nomilin],Effect (on ACP stylet sheath formation),D. citri [3]; listed as nomilin,inhibition of flange solidification
